{"source": "patent US7265136B1", "about": "“Substituted stilbene compounds with vascular damaging activity” (Angiogene Pharmaceuticals Ltd., priority 1999, dated 2007)", "key": {"[1]": {"tested_on": "CaNT tumour vasculature", "test": "Activity against tumour vasculature measured by fluorescent dye (Hoechst 33342): tumour functional vascular volume", "assay_type": "in vivo, mice", "settings": "Carcinoma NT tumour, 24 h post dose", "protocol": "Activity Against Tumour Vasculature Measured by Fluorescent Dye.\nTumour functional vascular volume in CaNT tumour-bearing mice was measured using the fluorescent dye Hoechst 33342 according to the method of Smith et al (Brit J Cancer 57, 247-253, 1988). The fluorescent dye was dissolved in saline at 6.25 mg/ml and injected intravenously at 10 mg/kg 24 hours after drug treatment. One minute later, animals were killed and tumours excised and frozen; 10 μm sections were cut at 3 different levels and observed under UV illumination using an Olympus microscope equipped with epifluorescence. Blood vessels were identified by their fluorescent outlines and vascular volume was quantified using a point scoring system based on that described by Chalkley, (J Natl Cancer Inst, 4, 47-53, 1943). All estimates were based on counting a minimum of 100 fields from sections cut at the 3 different levels."}, "[2]": {"tested_on": "CaNT tumours", "test": "Induction of necrosis in tumours, scored on haematoxylin and eosin stained sections", "assay_type": "in vivo, mice", "settings": "Carcinoma NT tumour, 24 h post dose, mean score from at least three tumours, control tumours 2.0", "protocol": "Mice bearing either CaNT or SaS tumours were treated with the test compound and tumours excised after 24 h, fixed in formalin, embedded in paraffin, sectioned and stained with haematoxylin and eosin. Sections were scored based on area of necrosis as follows:\nControl tumours had mean scores of 2.0 (CaNT) and 1.0 (SaS). Mean values from at least three different tumours were obtained for each test compound."}}}
{"smiles": "COc1ccc(/C=C\\c2cc(OC)c(OC)c(OC)c2)cc1OC(=O)C(N)CCCN=C(N)N[N+](=O)[O-]", "note": "(centres unmarked) [Cmpd. of Example 1, (Z)-1-(4-Methoxy-3-N^G-nitroarginyloxyphenyl)-2-(3,4,5-trimethoxyphenyl)ethene]", "values": [{"measurement": "Vascular volume % reduction", "setting": "[1]; 50 mg/kg i.v.", "result": 98, "unit": "%"}, {"measurement": "Necrosis score", "setting": "[2]; 50 mg/kg i.v.", "result": 10.0}]}
{"smiles": "COc1ccc(/C=C\\c2cc(OC)c(OC)c(OC)c2)cc1OP(=O)(O)O", "note": "[CA4P, Combretastatin A4 phosphate]", "values": [{"measurement": "Vascular volume % reduction", "setting": "[1]; 50 mg/kg i.p.", "result": 91, "unit": "%"}, {"measurement": "Vascular volume % reduction", "setting": "[1]; 50 mg/kg i.v.", "result": 88, "unit": "%"}, {"measurement": "Necrosis score", "setting": "[2]; 50 mg/kg i.p.", "result": 6.0}, {"measurement": "Necrosis score", "setting": "[2]; 50 mg/kg i.v.", "result": 5.7}]}
{"smiles": "COC(=O)C(CCCN=C(N)N[N+](=O)[O-])NC(=O)Oc1cc(/C=C\\c2cc(OC)c(OC)c(OC)c2)ccc1OC", "note": "(centres unmarked) [Cmpd. of Example 2, (Z)-N-[2-methoxy-5-[2-(3,4,5-trimethoxyphenyl)ethenyl]phenoxycarbonyl]N^G-nitroarginine Methyl Ester]", "values": [{"measurement": "Vascular volume % reduction", "setting": "[1]; 50 mg/kg i.p.", "result": 95, "unit": "%"}, {"measurement": "Necrosis score", "setting": "[2]; 50 mg/kg i.p.", "result": 8.0}]}
